Data taken from article PMC4050370 (Nature structural & molecular biology, 2014).

Target: LeuT (leucine transporter) (Aquifex aeolicus, UniProt O67854)
Assay: [3H]-Ala uptake in proteoliposomes
Format: biochemical
Settings: Na+-dependent; 50 mM NaCl, 50 mM Tris-Mes pH 8.5, 22 °C; labelled compound

Compound: C[C@H](N)C(=O)O [alanine]
- [3H]-Ala uptake in proteoliposomes: we measured Na^+-dependent alanine uptake in proteoliposomes for a large subset of mutants
